Assay results: article PMC7203344, “Sirtuin 1 Inhibiting Thiocyanates (S1th)—A New Class of Isotype Selective Inhibitors of NAD^+ Dependent Lysine Deacetylases” (Frontiers in Oncology, 2020)
Entries after “also recorded” stand apart in the source; their conditions may differ.

What was measured:
[1] = tested on: γH2AX/H2AX levels in MEF cells; assay: γH2AX level determination by western blot; format: cell-based, mouse
Description: Sirt1 WT and KO MEFS cells were treated with 10 μM EX-527, 12 μM S1th 13 (6), 20 μM S1th 12 (5), 30 μM S1th 10 (7) and 30 μM SirReal2 [Sirt2 inhibitor, synthesized according to ([62])] for 48 h. Oxidative stress was induced using 10 μM Camptothecin 2 h. Whole-cell extracts were performed according to the Dignam protocol ([63]). Primary antibodies used for the western blot were anti-H2AX and anti-γH2AX (ab11175 and ab2893 resp., Abcam, UK). Densiometric analysis of the western blots was performed with Quantity One software (Bio-Rad Laboratories, Inc., USA).

[2] = tested on: HeLa cells; assay: Wound healing assay with HeLa cells; format: cell-based, human
Description: For wound healing assay 6 × 10^5 cells per well were seeded in 6-well plates and grown for 24 h in DMEM containing 10% FBS. After 24 h, a lineal gap between cells was created in the middle of the plate by scratching the cell monolayer with a 1 mL pipette tip in the same position in each well. Once the scratching is done, plates were washed twice with PBS and then grown in DMEM containing 1% FBS and the drugs in the same concentrations as for the proliferation assay. As described previously, the growth media 1% FBS containing the drugs was replaced every 48 h. Images were acquired in an Optimal microscope (Leica microscopes, DE) using Leica Application Suite X (LAS X) every 24 h (0, 24, 48, and 72 h) until the gap closed. The quantification of the area of the gap at the indicated times was performed with Image J-MRI Wound Healing Tool. The experiment was performed only once.

[3] = tested on: HeLa cells; assay: Cell proliferation assay with HeLa cells; format: cell-based, human; conditions: EX-527 20 μM, S1th 13 12 μM, S1th 12 20 μM, S1th 10 30 μM; up to 120 h
Description: (§1) 1.5 × 10^4 cells/well were seeded in 24-well plates and grown in DMEM 10% in presence of DMSO, 20 μM EX-527, 12 μM S1th 13, 20 μM S1th 12, or 30 μM S1th 10. The growth media containing the drugs was replaced every 48 h. Cells were collected and counted at the indicated times starting 24 h after seeding (0, 24, 48, 72, 96, and 120 h). The experiment was performed twice in duplicates.

[4] = tested on: MCF7 cells; assay: Colony forming assay with MCF7 cells; format: cell-based, human; conditions: concentrations as for HeLa
Description: (§2) For colony assays, 50 cells per well were seeded in 6-well plates and grown in the same conditions with the same drug concentrations as for the proliferation assays. In this case, the growth media containing the drugs was replaced every 48 h. After 7–10 days, when isolated colonies were formed, wells were washed with PBS, and cells were fixed with cold methanol for 5 min at RT. Cells were stained with crystal violet for 10 min at RT and washed with H2O. Images were acquired using iBright (Thermo Fisher Scientific, MA, USA). For quantification, cells of each well were resuspended in 10% glacial acetic acid to dissolve crystal violet whose levels were monitored by measuring absorbance at 590 nm. The experiment was performed in duplicates.

[5] = target: T1, Sirt1 (Homo sapiens, UniProt Q96EB6); assay: Fluorescent thermal shift assay (FTSA), Sirt1; format: binding
T1 construct: made in house; host or cells: E. coli BL21 Star (DE3)
T1 sequence (Q96EB6 134-747): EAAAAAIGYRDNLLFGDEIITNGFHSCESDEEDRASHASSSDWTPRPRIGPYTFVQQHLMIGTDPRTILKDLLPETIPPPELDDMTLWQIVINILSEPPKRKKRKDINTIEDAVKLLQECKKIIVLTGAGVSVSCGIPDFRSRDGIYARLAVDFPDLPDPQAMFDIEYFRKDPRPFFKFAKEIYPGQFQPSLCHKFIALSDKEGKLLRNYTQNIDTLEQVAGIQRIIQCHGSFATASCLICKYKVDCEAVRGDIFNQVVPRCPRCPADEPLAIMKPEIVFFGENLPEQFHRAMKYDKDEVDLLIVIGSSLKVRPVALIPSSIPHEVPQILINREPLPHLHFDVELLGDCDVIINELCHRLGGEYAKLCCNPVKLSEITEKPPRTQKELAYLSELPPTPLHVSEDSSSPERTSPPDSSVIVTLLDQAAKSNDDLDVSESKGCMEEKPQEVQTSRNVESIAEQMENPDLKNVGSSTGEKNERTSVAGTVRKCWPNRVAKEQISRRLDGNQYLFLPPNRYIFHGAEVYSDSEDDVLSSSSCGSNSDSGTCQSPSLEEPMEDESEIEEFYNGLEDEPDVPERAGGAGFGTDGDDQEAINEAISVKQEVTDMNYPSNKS
Description: In a 96-well plate (Hard-Shell® PCR-plates, 96-well, thin-wall, BioRAD, USA) 14 μL Sirt1_134−747 in assay buffer (0.3 mg/mL final assay concentration, 50 mM Tris/HCl, 137 mM NaCl, 2.7 mM KCl, 1 mM MgCL2, pH 8.0) were mixed with 1 μL inhibitor in DMSO (100 μM) or DMSO [final assay concentration 5% (v/v)] as a control and 5 μL SyproOrange (1:100 in assay buffer). The fluorescence intensity was monitored during a constant increase of temperature from 20 to 95°C, 1 K per 20 s, using a real-time-PCR-machine (C1000 TouchTM Thermal Cycler, CFX96TM Real-Time System, BioRAD, USA). Melting temperatures were calculated via GraphPad Prism according to a published procedure ([60]).

[6] = tested on: H3K9ac and p53K382ac in HeLa cells; assay: Analysis of acetylation status in HeLa cells by western blotting; format: cell-based, human; conditions: 48 h, concentrations as in proliferation assay
Description: 5 × 10^4 cells were plated in 6-well plates and grown with the conditions and drug concentrations as described for the proliferation assay. Cells were harvested at 48 h and resuspendend in protein loading buffer. After sonication the samples were centrifuged at 14,000 rpm in an Eppendorf microcentrifuge (Eppendorf, DE) and the supernatants were analyzed by western-blot. The following antibodies were used: histone H3 (Cell Signaling #9715), histone H3K9ac (Cell Signaling # C5B11), GAPDH (Cell Signaling #D16H11), p53 (ThermoFisher #PA527822), and p53K382ac (Abcam 75754). Quantification was carried out using imageJ.

[7] = tested on: MCF7 cells; assay: Cell proliferation assay with MCF7 cells; format: cell-based, human; conditions: concentrations as for HeLa
Description: as §1

[8] = tested on: HeLa cells; assay: Colony forming assay with HeLa cells; format: cell-based, human; conditions: 7–10 days; concentrations as in proliferation assay
Description: as §2

Structure (SMILES): NC(=O)C1CCCc2c1[nH]c1ccc(Cl)cc21 (stereo not drawn) [EX-527, reference compound]
- γH2AX/H2AX levels without Camptothecin ([1]; 48 h, EX-527 10 μM, S1th 10 30 μM, S1th 12 20 μM, S1th 13 12 μM, SirReal2 30 μM): decreased
- γH2AX/H2AX levels after addition of Camptothecin ([1]; Camptothecin 10 μM 2 h, same inhibitor concentrations): strong decrease
- migration of HeLa cells (wound healing), 24 h ([2]; 24 h, concentrations as in proliferation assay, performed once): failed to impair migration
- wound healing of HeLa cells, 72 h ([2]; 72 h): mild effect on wound healing
- cell proliferation of HeLa cells [3]: significantly decreased cell proliferation
- colony forming capabilities of MCF7 cells [4]: significantly decreased
- effect on Tm of Sirt1 (in words) [5]: barely effected; also recorded: very small shift or no shift at all
- H3K9 acetylation in HeLa cells [6]: no hyperacetylation
- p53K382 acetylation in HeLa cells [6]: increased acetylation levels
- H3K9 acetylation in HeLa cells ([6]; listed as 1): did not show clear hyperacetylation
- cell proliferation of MCF7 cells [7]: only have a mild effect
- colony forming of HeLa cells [8]: completely suppressed colony forming
